Measurements from patent US20040167164A1, “Compositions and methods for treating particular chemical addictions and mental illnesses” (priority 1998, published 2004).
Values joined by “and” are separate entries in the source; they are usually repeats but may differ in a detail not shown here. Equal values may be shown once. “Also recorded” adds a separate entry of the source.

How the values were obtained:
[1] = format: in vivo; details: with Polycitra orally, urine pH about 7.8 to 8
Description: Once known that AMPT produced crystalluria, which prevented its use in humans, the present inventor conducted research to find a solution to the crystalluria problem. Specifically, this research was directed to provide a composition containing AMPT that could be used in the treatment of patients suffering from different conditions and without the formation of AMPT crystalluria. This was accomplished with extensive research in animals, such as mice, rats, mongrel and beagle dogs, to which AMPT with a urine alkalinizer was administered. The alkalinization was obtained with Polycitra, administered orally, and in an amount to obtain a urine pH of about 7.8 to 8.

[2] = system: rats made dependent on alcohol; test: Rats made dependent on alcohol (25% alcohol solution); format: in vivo; details: AMPT 300 mg per kg of body weight
Description: Subsequently, it was observed that rats made dependent on alcohol (25% alcohol solution) would prefer again to drink plain water, instead of the alcohol solution upon which they had been made dependent, when treated with AMPT (300 mg per kg of body weight), with their preference being manifested after 2-4 days of treatment.

[3] = system: tobacco addiction (nicotine); test: Treatment of smokers (nicotine dependence); parameters: species or system human; details: in vivo
Description: Furthermore, the present inventor utilized the combination of Haloperidol and AMPT by administering small doses of Haloperidol, 2 mg, (6 mgs total per day) for a healthy human, weighing 70 kg, simultaneously with the initiation of treatment with AMPT.
Generally, the administration of Haloperidol was discontinued after 7-10 days, while AMPT was administered for a period of at least three months in doses of 250 mg b.i.d.

heroin addiction = test: Case reports, heroin addiction
addiction to heroin = system: addiction to heroin
Description: (§1) Sixteen patients, randomly selected, addicted to heroin, cocaine, or cocaine and alcohol, were assigned to 3 different treatment groups, as follows:
(§2) a) A group of 6 patients, 3 of them addicted to heroin, and another 3 addicted to cocaine plus alcohol, were treated with AMPT alone.
(§3) b) Another group of 6 patients, 3 addicted to heroin and another 3 to cocaine plus alcohol, were treated with Haloperidol alone.
(§4) c) Another group of 4 patients, 2 addicted to heroin and another 2 addicted to cocaine and alcohol, were treated with placebo from the first day of admission.
(§5) The treatment protocol was as follows:
(§6) 2) All patients received the same proper amount of the alkalinizer Polycitra to produce a urinary pH around 7.8.
(§7) 4) All patients started treatment immediately after they arrived before they could develop any signs of withdrawal.
(§8) 5) Because of the difficulty to fulfill the above requirement of having consumed drugs on the same day of admission, all patients could not be treated simultaneously. This requirement was instated to maintain similarity with many other patients in our general program, where patients are started on treatment immediately after they arrive, even if they arrive immediately after consuming large amounts of the addicting drug(s).

[4] = system: craving and abstinence symptoms; test: Unintentional simple blind study with defective AMPT capsules; format: in vivo, human; details: capsules containing less than half the intended amount of AMPT
Description: Moreover, it was confirmed that the effective agent in abolishing craving and abstinence symptoms in humans was the action of AMPT and none of the other agents given—Akineton or Polycitra—when in our first studies in humans, unknowingly we administered to patients capsules in which the amount of AMPT contained was less than half the amount of AMPT they should have had. The excessive amount of filler (calcium stearate) put in the capsulating machine in order to render the blended mixture more fluid and less compact, given the heavy consistency of the AMPT that was otherwise difficult for incorporation into capsules, was so excessive that it decreased the amount of AMPT in the capsules to less than half of what it should have been.
Once we knew the cause of the failure, we started to administer the proper dosage of AMPT. The patients then responded. […] The number of patients treated with different addictions, convinced us that the association of AMPT with Haloperidol produces very outstanding and beneficial results.

[5] = system: rats exposed to cigarette extract and smoke; test: Rats given cigarette extract water and cigarette smoke, choice test; format: in vivo; details: after 18 hours
Description: A cigarette extract was obtained by burning cigarettes and collecting the tar, nicotine, and other products of cigarette combustion by a perforated plastic tube tied to the exhaust of a miniature vacuum cleaner. The air and smoke was passed through a container of water in which the cigarette extract was deposited. This drinking water was subsequently given to the animals. In addition to bottle feeding rats with the cigarette extract water (equivalent to 6 cigarettes per rat per day), the rats were also exposed to cigarette smoke. The rats were exposed for 2 hours at 8 hour intervals, for a total of 6 hours a day, to cigarette smoke in a sealed chamber. After a period of 4 months, 24 animals died of different causes, pneumonia among them, and 66 survived. The remaining 66 animals were divided in two groups: 35 were treated with AMPT orally, and 31 were kept as controls. The urine was alkalinized in both groups with Polycitra to a pH of about 7.8.
At the end of 4 months, all rats were given the choice to continue drinking the same cigarette extract contaminated water or drink pure drinking water in equal amounts. All animals were given the choice to be in the cigarette smoke filled chamber or to use clean air quarters. […]

[6] = system: morphine addicted monkeys; test: Craving and abstinence syndrome in narcotic-addicted monkeys; format: in vivo; details: bar-presses; withdrawal symptoms, aggressive behavior
Description: Equally the same, at present it is well known that all addictions have in common a biochemical factor—the alteration of the dopamine synthesis and its transporters.
Based on the above, we further hypothesized that the combination of both agents would render better results than any one of them alone.

[7] = system: patients with dual disorder; test: Length of hospitalization of treated patients (Table I); details: human, in vivo
[8] = system: addiction to cocaine plus alcohol; test: 16 patient study, patients addicted to cocaine plus alcohol; format: in vivo, human; details: three patients
Description: as §1, §2, §3, §4, §5, §6, §7, §8

[9] = system: homovanilic acid (HVA), a dopamine metabolite; test: Urinary dopamine metabolites during Haloperidol administration; format: in vivo, human; details: for dopamine metabolites (HVA) in urine: bipolar, manic and paranoid schizophrenic patients
Description: While studying human subjects, diagnosed with bipolar illness, the effects of administering Haloperidol on the metabolites of the neurotransmitter dopamine (DA) were analyzed.
The urinary studies were done for a period of 6 weeks in eight patients chosen for the study (three manic patients and five schizophrenics of the paranoid type).

alcoholism = test: Treatment of alcoholic patients; format: in vivo, human; details: follow-up 2 to 3 years

SMILES: CC(N)(Cc1ccc(O)cc1)C(=O)O (stereo not drawn) [AMPT, alpha-methyl-para-tyrosine]
- safety (autopsy, macroscopic, microscopic, electron-microscopy) [1]: safety being confirmed by autopsy
- time until preference for plain water instead of alcohol solution [2]: 2 to 4 days
- time until craving to smoke is lost [3]: 2 to 4 days and 2 to 3 days
- time to discharge from hospital (heroin addiction; case reports 1, 2, 16, 17, 18): 65 days and 78 days
- craving and abstinence symptoms (heroin addiction; case reports 1, 2, 17, 18): no abstinence symptoms appearing
- relapse to drugs at follow-up (heroin addiction; follow-up 14 months to 1½ years): had not taken any drugs
- day when patients had no craving or abstinence symptoms (addiction to heroin; three patients): sixth day
- patient response [4]: failed to respond
- choice of chamber [5]: totally avoiding the smoke filled compartment
- choice of drinking water ([5]; AMPT orally, discontinued two days in advance): chose to continue drinking the pure water
- craving and manifestations of the abstinence syndrome [6]: abolition of craving and withdrawal in all animals; also recorded: abolish the craving for morphine and the manifestations of the abstinence syndrome
- Average Length of Hospitalization [7]: 47 days
- Longest Hospitalization [7]: 97 days
- Shortest Hospitalization [7]: 26 days
- day when craving for cocaine started to remit [8]: fifth day
- day when craving for cocaine was totally extinguished [8]: seventh
- time to almost total cessation of the acute symptoms (schizophrenia and mania; Haloperidol 10-15 mg t.i.d. when added): 24 to 30 h
- relapse of symptoms at follow-up on maintenance (schizophrenia and mania; case reports 8, 10, 11, follow-up 1-2 years): did not have any more phases of mania or depression

SMILES: OC(CCN1CCCCC1)(c1ccccc1)C1CC2C=CC1C2 (stereo not shown) [Akineton]
- dopamine metabolites (HVA) in urine [9]: not related to the increase in dopamine metabolites

SMILES: O=C(CCCN1CCC(O)(c2ccc(Cl)cc2)CC1)c1ccc(F)cc1 [Haloperidol, 4-[4-(p-chlorophenyl)-4-hydroxy-piperidino]-4′-fluorobutyrophe]
- clinical symptoms after a month of treatment ([9]; Haloperidol exclusively, up to 60 mg a day, three paranoid and two manic patients): not totally controlled
- dopamine metabolites (HVA) in urine [9]: increasing; also recorded: increased gradually and quantitatively in urine
- time to maximum HVA concentration in urine ([9]; continued Haloperidol administration): 3-4 weeks
- overall conclusion on treatment of addiction (addiction to heroin; 16 patient study, heroin and cocaine plus alcohol): useless
- severity of withdrawal symptoms compared with no treatment agent (addiction to heroin; human, in vivo): more severe
- onset of severe manifestations of withdrawal (addiction to heroin; three patients): 26 to 30 h
- craving and manifestations of the abstinence syndrome [6]: did not modify the craving
- craving for cocaine ([8]; up to sixth day): did not subside

SMILES: O=C1CC[C@@]2(O)[C@H]3Cc4ccc(O)c5c4[C@@]2(CCN3CC2CC2)[C@H]1O5 [Naltrexone]
- relapse into alcohol at follow-up (alcoholism): none
